Patent US20050130890A1, “Amyloid beta is a ligand for FPR class receptors” (priority 2001, published 2005)

Assays:
[1] = system: human monocytes; test: Chemotaxis (migration) of human monocytes, 48-well chamber; format: cell-based
Excerpt: (§1) Reagents and cells. Aβ peptide (Aβ42) and the peptide with reversed sequence (Aβ42-1) were purchased from California Peptide Research (Napa, Calif.). All peptides were examined for endotoxin contamination and were negative at highest concentrations used in the study. Human peripheral blood monocytes were isolated from buffy coats (National Institutes of Health Clinical Center, Bethesda, Md.) enriched for mononuclear cells by using iso-osmotic Percoll gradient. The purity of the cell preparations was examined by morphology and was >90%. Rat basophilic leukemia cell line (RBL-2H3) transfected with epitope-tagged N-formylpeptide receptor (FPR) (designated ETFR) was a kind gift of Dr. R. Snyderman (Duke University, Durham, N.C.). cDNA cloning and establishment of FPRL1-transfected human embryonic kidney (HEK) 293 cells (FPRL1/293) were described previously (Gao J. L. & Murphy P. M. 1993 J Biol Chem 268:[…]). All the transfected cells were maintained in culture media as described (Su S. B. et al. 1999 J Exp Med 189:395-402).
(§2) Chemotaxis assays and measurement of calcium mobilization. Chemotaxis assays were performed using 48-well chemotaxis chambers (Deng X. et al. 1999 Blood 94:1165-1673). The results were expressed as the mean number (±SD) of migrated cells in three high-powered fields in three replicate samples. Chemotaxis index, which represented the fold increase in the number of cells migrated in response to chemoattractants over the cell response to control medium, also was used. Ca^+ mobilization was measured by stimulating fura-2 AM-loaded human monocytes or receptor-transfected cells with various agents (Deng X. et al. 1999 Blood 94:1165-1673; Su S. B. et al. 1999 J Exp Med 189:395-402) and recording the ratio of fluorescence at 340 and 380 nm in a luminescence spectrometer with FL WinLab program (Perkin-Elmer, Beaconsfield, UK).

[2] = system: human monocytes; test: Ca2+ mobilization in fura-2 loaded human monocytes; format: cell-based
Excerpt: as §1, §2

[3] = biological target: T1, FPRL1 (Homo sapiens, UniProt P25090); test: Ca2+ mobilization in FPRL1/293 cells; format: cell-based
T1 construct: expressed in transfected cells; host or cells: HEK 293
T1 sequence (P25090 1-351): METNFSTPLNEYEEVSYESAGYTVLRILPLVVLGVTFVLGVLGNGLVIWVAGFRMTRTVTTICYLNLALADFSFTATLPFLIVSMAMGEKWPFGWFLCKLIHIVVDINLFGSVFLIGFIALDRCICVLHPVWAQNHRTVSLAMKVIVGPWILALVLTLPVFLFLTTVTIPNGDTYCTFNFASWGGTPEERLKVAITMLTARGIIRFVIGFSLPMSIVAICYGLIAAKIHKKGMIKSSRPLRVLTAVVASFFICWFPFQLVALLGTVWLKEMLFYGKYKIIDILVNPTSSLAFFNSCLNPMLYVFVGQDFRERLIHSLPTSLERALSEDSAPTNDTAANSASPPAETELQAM
Excerpt: (§3) Reagents and cells. Aβ peptide (Aβ42) and the peptide with reversed sequence (Aβ42-1) were purchased from California Peptide Research (Napa, Calif.). All peptides were examined for endotoxin contamination and were negative at highest concentrations used in the study. Human peripheral blood monocytes were isolated from buffy coats (National Institutes of Health Clinical Center, Bethesda, Md.) enriched for mononuclear cells by using iso-osmotic Percoll gradient. The purity of the cell preparations was examined by morphology and was >90%. […]
as §2, with “Chemotaxis assays were performed using 48-well chemotaxis chambers (Deng X. et al. 1999 Blood 94:1165-1673).” left out, “Chemotaxis index, which represented the fold increase in the number of cells migrated in response to chemoattractants over the cell response to control medium, also was used.” left out

[4] = biological target: T2, FPR (Homo sapiens, UniProt P21462); test: Ca2+ mobilization in ETFR cells (RBL-2H3 transfected with epitope-tagged FPR); format: cell-based
T2 construct: expressed in transfected cells; host or cells: RBL-2H3 (rat basophilic leukemia)
T2 sequence (P21462 1-350): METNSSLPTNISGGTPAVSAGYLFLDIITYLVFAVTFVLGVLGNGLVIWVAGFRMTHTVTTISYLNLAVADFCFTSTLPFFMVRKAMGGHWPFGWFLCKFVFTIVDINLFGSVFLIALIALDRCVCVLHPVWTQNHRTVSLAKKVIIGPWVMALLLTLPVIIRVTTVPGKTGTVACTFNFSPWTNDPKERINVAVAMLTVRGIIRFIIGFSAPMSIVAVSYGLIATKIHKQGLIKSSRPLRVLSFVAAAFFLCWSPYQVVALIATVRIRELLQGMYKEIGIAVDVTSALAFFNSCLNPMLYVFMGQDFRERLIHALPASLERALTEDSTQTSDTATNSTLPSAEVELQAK
Excerpt: as §3
as §2, with “Chemotaxis assays were performed using 48-well chemotaxis chambers (Deng X. et al. 1999 Blood 94:1165-1673).” left out, “Chemotaxis index, which represented the fold increase in the number of cells migrated in response to chemoattractants over the cell response to control medium, also was used.” left out

[5] = system: mouse neutrophils; test: Superoxide production in mouse neutrophils (Diogenes chemiluminescence); format: cell-based
Experimental: The cell population was consistently composed of >90% neutrophils, as determined by light microscopy of DiffQuick-stained cytospins. Thus, hereafter we will refer to this cell preparation as neutrophils. Superoxide Production. […] Then a mixture of the superoxide-specific chemiluminescence indicator reagent Diogenes (National Diagnostics, Atlanta, Ga.) was added to the cells (50% of total reaction volume) with appropriate stimuli or vehicle control, and superoxide dismutase-inhibitable chemiluminescence was measured in a luminometer (Labsystems Luminoskan; Helsinki, Finland). […] For sequential stimulation experiments, 5×10^4 FPR −/− neutrophils were distributed into microcentrifuge tubes, and test substances were added. The mixture was then immediately transferred to a chemiluminescence plate. After incubation at 37° C. for 8 min (when fMLF was the first stimulus) or 9 min (when Aβ was the first stimulus), Diogenes reagent plus the final stimulus was added, and the activity was monitored for 10 min. […] Each condition was tested in triplicate, and the mean of the mean number (grand mean) of superoxide dismutase-inhibitable relative light units throughout the duration of the assay and the corresponding standard errors of grand means were calculated. […]

[6] = system: mouse neutrophils; settings: neutrophils from wild type mice, cited from earlier work
[7] = biological target: mouse N-formylpeptide receptor 2 (FPR2), on transfected HEK 293 cells or endogenous on mouse neutrophils and N9 microglial cells (mouse) (UniProt O88536); test: cell-based or functional assay
[8] = biological target: T1, FPRL1; test: FPRL1 internalization in FPRL1/293 cells, fluorescence confocal microscopy; format: cell-based
Experimental: (§4) Human peripheral blood monocytes (PBM) were isolated from Buffy coats (Transfusion Medicine Department, NIH Clinical Center, Bethesda, Md.) by using iso-osmotic Percoll gradient. The purity of cell preparations by morphology was >90%. PBM were further differentiated to macrophages by culturing the cells in RPMI 1640 medium containing 0.1% bovine serum albumin, 0.01M HEPES (pH 7.4), and 20 ng/ml monocyte colony stimulating factor (MCSF, Pepro Tech, Rocky Hill, N.J.). The cells were plated on 4-well chamber slides (Nalge Nunc International, Rochester, N.Y.) at a density of 1×10^5 cells/well. HEK293 cells genetically engineered to express FPRL1 cDNA (FPRL1/293 cells) were kindly provided by Dr. P. M. Murphy (National Institute of Allergy and Infectious Diseases, NIH). FPRL1/293 cells were suspended in DMEM supplemented with 10% FBS (Hyclone, Logan, Utah), 1 mM glutamine (Gibco-BRL, Grand Island, N.Y.), and 800 μg/ml geneticin (G418, Gibco-BRL). The cells were also plated on 4-well chamber slides at a density of 2×10^5 cells/well.
Fluorescence confocal microscope. Human macrophages or FPRL1/293 cells grown on chamber slides were treated with FPRL1 agonists for different periods at 37° C. The cells were fixed in 4% paraformaldehyde for 10 min at room temperature. Slides were washed with PBS and incubated with 5% normal goat serum (Sigma) in PBS, 0.05% Tween-20 (PBS-T-NGS), for 1 h to block nonspecific binding sites and for permeabilization. The anti-Aβ42 and anti-FPRL1 antibodies were applied and the slides were incubated for 1 h at room temperature. […] The slides were mounted with an anti-fade, water-based mounting medium with 4,6-diamidino-2-phenylindole (DAPI; Vector Lab, Burlingame, Calif.) and analyzed under a laser scanning confocal fluorescence microscope (Leica TCS-4D DMIRBE, Heidelberg, Germany). Excitation wavelengths of 365 (for DAPI), 488 (for FITC), and 568 (for rhodamine) nm were used to generate fluorescence emission in blue, green, and red respectively. […]

[9] = system: macrophages; test: Apoptosis of macrophages (annexin-V-FITC/PI flow cytometry); format: cell-based, human; settings: 48 h; 10 μM Aβ42 or 1 μM W pep
Experimental: (§5) Detection of apoptosis. Apoptotic cells were detected by double labeling with annexin-V-FITC and propidium iodide (P1). Annexin-V binds to phosphatidylserine residues, which are translocated from the inner to the outer leaflet of the plasma membrane during the early stages of apoptosis (Koopman G. et al. 1994 Blood 84:1415-1420; Martin S. J. et al. 1995 J Exp Med 182:1545-1556). Necrotic cells were distinguished from annexin-V-positive cells by counterstaining with PI (final concentration 1 μg/ml) (Heidenreich S. et al. 1997 J Immunol 159:3178-3188; Mangan D. F. et al. 1991 J Immunol 146:1541-1546. Apoptotic cells were labeled by using an annexin-V kit according to manufacturer's instructions (Santa Cruz Biotechnology, Santa Cruz, Calif.) and analyzed by flow cytometry.

[10] = system: FPRL1/293 cells; test: Apoptosis of FPRL1/293 cells (annexin-V-FITC/PI flow cytometry); format: cell-based, human; settings: 48 h; 10 μM Aβ42 or 1 μM W pep
Experimental: as §5

[11] = system: macrophages; test: Congo red histochemistry of macrophages (fibril formation); format: cell-based, human
Experimental: Congo red histochemistry. Cells on chamber slides were fixed with 4% paraformaldehyde and stained with hematoxylin for 2 min at room temperature. After 20 min incubation in a saturated NaCl solution containing 80% ethanol and 0.1% NaOH, the slides were reacted for 20 min with 0.2% Congo red. Destaining and dehydration were completed by washing the slides sequentially in 95% ethanol and 100% ethanol, followed by xylene. Coverslips were applied using Permount and the slides were viewed under light microscopy.

[12] = biological target: T1, FPRL1; test: Chemotaxis of FPRL1/293 cells; format: cell-based
Excerpt: as §3
as §2, with “Chemotaxis assays were performed using 48-well chemotaxis chambers (Deng X. et al. 1999 Blood 94:1165-1673).” left out, “Chemotaxis index, which represented the fold increase in the number of cells migrated in response to chemoattractants over the cell response to control medium, also was used.” left out

[13] = biological target: T1, FPRL1; test: Aβ42/FPRL1 internalization in human macrophages, fluorescence confocal microscopy; format: cell-based; settings: 30 min incubation at 37° C.
Experimental: as §4, with “FPRL1/293 cells were suspended in DMEM supplemented with 10% FBS (Hyclone, Logan, Utah), 1 mM glutamine (Gibco-BRL, Grand Island, N.Y.), and 800 μg/ml geneticin (G418, Gibco-BRL). The cells were also plated on 4-well chamber slides at a density of 2×10^5 cells/well.” left out
Fluorescence confocal microscope. […] The slides were mounted with an anti-fade, water-based mounting medium with 4,6-diamidino-2-phenylindole (DAPI; Vector Lab, Burlingame, Calif.) and analyzed under a laser scanning confocal fluorescence microscope (Leica TCS-4D DMIRBE, Heidelberg, Germany). Excitation wavelengths of 365 (for DAPI), 488 (for FITC), and 568 (for rhodamine) nm were used to generate fluorescence emission in blue, green, and red respectively. […]

mouse N-formylpeptide receptor 2 (FPR2), on transfected HEK 293 cells or endogenous on mouse neutrophils and N9 microglial cells (mouse), sequence (O88536 whole entry): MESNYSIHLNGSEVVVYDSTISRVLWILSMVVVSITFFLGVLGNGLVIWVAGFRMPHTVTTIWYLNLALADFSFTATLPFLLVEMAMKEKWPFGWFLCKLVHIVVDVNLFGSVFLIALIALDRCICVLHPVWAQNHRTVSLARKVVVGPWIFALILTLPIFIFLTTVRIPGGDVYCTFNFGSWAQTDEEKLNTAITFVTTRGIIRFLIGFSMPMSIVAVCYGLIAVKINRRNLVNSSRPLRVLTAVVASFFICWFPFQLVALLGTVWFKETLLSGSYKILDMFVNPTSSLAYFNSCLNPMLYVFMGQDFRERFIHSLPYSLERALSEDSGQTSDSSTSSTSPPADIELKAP

In the case of “Aβ42 “aged”: Aβ42 aged at 37° C., tested as the aggregated form”, the “induction of monocyte migration” value [1] is reported as “lower potency than freshly dissolved peptide”.
For “GlyBSA: Glycated bovine albumin, a reported ligand for RAGE”, the “Ca2+ mobilization in human monocytes” value [2] was “potent inducer of Ca^2+ mobilization”, the “effect of prior stimulation on subsequent Ca2+ flux response of monocytes to Aβ42 (desensitization)” value (“effect of prior stimulation” for short) [2] was “able to cross-desensitize the cell response to Aβ42” and the “Ca2+ mobilization in FPRL1/293 cells” value [3] was “stimulated Ca^2+ mobilization”. The “Ca2+ mobilization in ETFR cells” value [4] was “stimulated Ca^2+ mobilization”.
For `CSCC[C@H](NC=O)C(=O)N[C@@H](CC(C)C)C(=O)N[C@@H](Cc1ccccc1)C(=O)O` [fMLF, formyl-methionyl-leucyl-phenylalanine], the “effect of prior stimulation” value [2] was “clearly inhibited the subsequent Ca^2+ flux response to Aβ42”, the “desensitization of Aβ42-induced Ca2+ flux in FPRL1/293 cells” value ([3]; prior stimulation) was “desensitized” and the “difference of EC50 of superoxide generation, FPR −/− versus FPR+/+ neutrophils” value [5] was 10 fold. The “effect of pretreatment on superoxide response to 10 μM Aβ” value ([5]; FPR −/− neutrophils, pretreated with 5 μM fMLF vs vehicle) was “markedly attenuated”, the “optimum of second peak of chemotaxis dose-response curve” value [6] was 10 µM and the “optimum of first peak of chemotaxis dose-response curve” value ([6]; peak due to FPR) was about 500 nM.
“bacterial chemotactic peptide formyl-methionyl-leucyl-phenylalanine (fMLF)” gave a superoxide generation in neutrophils, EC50 in FPR -/- against FPR +/+ cells [7] of 10 fold.
With fucoidan the “Ca2+ mobilization in human monocytes” value [2] was “did not induce Ca^2+ mobilization” and the “effect of prior stimulation” value [2] was “did not affect monocyte response to subsequent stimulation with Aβ42”.
With WKYMVm [W pep] the “time to maximal FPRL1 internalization” value ([8]; 37° C.) was 15 to 30 min, the “time until FPRL1 is back on the cell surface after removal of agonist (receptor recycling)” value ([8]; agonist removed after 30 min) was 2 h and the apoptosis [9] was “did not increase the apoptosis”. For the same molecule, the apoptosis [10] was “did not increase the apoptosis” and the “Congo red positive fibrils” value ([11]; incubation 24 h to 48 h) was “did not form Congo red positive fibrils”.
With `COc1cc2c(c(OC)c1OC)-c1ccc(OC)c(=O)cc1[C@@H](NC(C)=O)CC2` [colchicine] the “inhibition of Aβ42-induced chemotaxis” value ([1]; monocytes) was “potent inhibitor of Aβ42-induced chemotaxis”, the “inhibition of Aβ42-induced chemotaxis” value [12] was “potent inhibitor of Aβ42-induced chemotaxis” and the “effect on internalization of Aβ42/FPRL1 complexes” value ([8]; 30 min incubation at 37° C.) was “failed to internalize”. For the same molecule, the “effect on internalization of Aβ42/FPRL1 complexes” value [13] was “failed to internalize” and the “effect on Congo red staining of macrophages incubated with Aβ42” value ([11]; 48 h incubation with Aβ42) was “not significantly stained with Congo red”.
